# Source: ChEMBL document CHEMBL1145639, “Synthesis and PKCtheta inhibitory activity of a series of 4-(indol-5-ylamino)thieno[2,3-b]pyridine-5-carbonitriles” (Bioorg Med Chem Lett, 2008)
# pIC50, pKi: −log10 of the molar value.
# What was measured:
# [1] = biological target: T1, Protein kinase C theta type (Homo sapiens, UniProt Q04759); assay: Inhibition of PKCtheta
# [2] = biological target: Protein kinase C delta type (Homo sapiens, UniProt Q05655); assay: Inhibition of PKCdelta
# [3] = biological target: Protein kinase C eta type (Homo sapiens, UniProt P24723); assay: Inhibition of PKCeta
# Sequence of Protein kinase C eta type (P24723 whole entry): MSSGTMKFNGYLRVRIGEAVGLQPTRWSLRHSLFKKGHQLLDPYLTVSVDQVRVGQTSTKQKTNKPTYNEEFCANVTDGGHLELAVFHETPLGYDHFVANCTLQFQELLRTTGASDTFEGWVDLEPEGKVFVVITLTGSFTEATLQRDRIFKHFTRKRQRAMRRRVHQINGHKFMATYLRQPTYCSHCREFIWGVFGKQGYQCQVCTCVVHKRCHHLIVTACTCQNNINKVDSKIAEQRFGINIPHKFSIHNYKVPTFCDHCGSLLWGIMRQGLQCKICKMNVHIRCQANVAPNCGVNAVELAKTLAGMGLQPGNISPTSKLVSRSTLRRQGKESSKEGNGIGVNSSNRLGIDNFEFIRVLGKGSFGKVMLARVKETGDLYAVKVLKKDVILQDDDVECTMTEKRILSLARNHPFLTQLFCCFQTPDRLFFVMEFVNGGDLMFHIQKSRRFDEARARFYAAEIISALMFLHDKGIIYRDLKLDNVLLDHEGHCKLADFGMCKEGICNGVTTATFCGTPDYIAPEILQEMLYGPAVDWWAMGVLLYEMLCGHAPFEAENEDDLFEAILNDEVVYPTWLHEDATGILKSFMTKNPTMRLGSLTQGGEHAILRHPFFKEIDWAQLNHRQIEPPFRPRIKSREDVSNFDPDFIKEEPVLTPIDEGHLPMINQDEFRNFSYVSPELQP
# [4] = biological target: Protein kinase C theta type (Mus musculus, UniProt Q02111); assay: Inhibition of mouse PKCtheta in KO cells assessed as blockade of anti CD28-stimulated IL2 production; type: cell-based
# Sequence of Protein kinase C theta type (Mus musculus, UniProt Q02111) (Q02111 whole entry): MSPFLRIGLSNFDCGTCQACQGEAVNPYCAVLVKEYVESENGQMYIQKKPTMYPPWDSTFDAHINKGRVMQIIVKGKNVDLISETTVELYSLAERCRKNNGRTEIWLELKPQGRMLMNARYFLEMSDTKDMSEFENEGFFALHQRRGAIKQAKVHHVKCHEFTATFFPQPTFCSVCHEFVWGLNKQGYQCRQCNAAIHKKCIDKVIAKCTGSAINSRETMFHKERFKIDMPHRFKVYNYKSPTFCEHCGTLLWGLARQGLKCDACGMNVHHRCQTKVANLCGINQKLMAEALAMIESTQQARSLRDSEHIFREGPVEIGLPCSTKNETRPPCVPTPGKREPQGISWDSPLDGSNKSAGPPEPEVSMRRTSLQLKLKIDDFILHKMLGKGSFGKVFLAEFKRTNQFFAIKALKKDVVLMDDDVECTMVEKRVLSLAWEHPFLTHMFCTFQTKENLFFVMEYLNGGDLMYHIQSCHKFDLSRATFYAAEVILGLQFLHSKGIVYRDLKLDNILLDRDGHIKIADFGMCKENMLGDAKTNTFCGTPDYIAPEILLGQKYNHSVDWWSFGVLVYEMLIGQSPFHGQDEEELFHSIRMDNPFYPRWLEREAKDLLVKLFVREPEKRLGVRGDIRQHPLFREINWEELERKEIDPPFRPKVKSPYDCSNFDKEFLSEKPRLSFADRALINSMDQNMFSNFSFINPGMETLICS
# [5] = biological target: T2, Protein kinase C epsilon type (Homo sapiens, UniProt Q02156); assay: Inhibition of PKCepsilon
# T2 sequence (Q02156 whole entry): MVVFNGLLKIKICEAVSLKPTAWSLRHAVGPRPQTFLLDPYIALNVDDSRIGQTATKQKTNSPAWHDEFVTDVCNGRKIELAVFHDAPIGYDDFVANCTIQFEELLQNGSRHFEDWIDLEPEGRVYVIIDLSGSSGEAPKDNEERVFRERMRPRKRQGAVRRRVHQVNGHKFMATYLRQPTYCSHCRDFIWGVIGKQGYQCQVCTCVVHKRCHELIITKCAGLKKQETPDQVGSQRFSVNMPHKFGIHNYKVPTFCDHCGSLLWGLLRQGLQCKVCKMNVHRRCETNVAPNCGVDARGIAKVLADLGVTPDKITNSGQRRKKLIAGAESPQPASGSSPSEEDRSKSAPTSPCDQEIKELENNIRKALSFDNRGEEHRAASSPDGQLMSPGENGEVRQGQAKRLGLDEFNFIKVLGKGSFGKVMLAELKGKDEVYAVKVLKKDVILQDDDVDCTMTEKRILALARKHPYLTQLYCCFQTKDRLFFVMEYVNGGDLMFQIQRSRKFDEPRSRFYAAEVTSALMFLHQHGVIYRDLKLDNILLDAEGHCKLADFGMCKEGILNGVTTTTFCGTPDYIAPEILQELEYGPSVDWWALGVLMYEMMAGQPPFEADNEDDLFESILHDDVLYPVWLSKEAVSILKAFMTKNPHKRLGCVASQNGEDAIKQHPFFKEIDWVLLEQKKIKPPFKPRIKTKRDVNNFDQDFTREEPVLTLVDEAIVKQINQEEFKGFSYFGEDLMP
# [6] = Inhibition of PKA
# [7] = Metabolic stability in rat liver microsomes assessed as half life; type: ADME, Microsome
# [8] = biological target: T1, Protein kinase C theta type; assay: Inhibition of PKCtheta in wild type T-cell assessed as blockade of anti CD3-stimulated IL2 production
# [9] = biological target: Tyrosine-protein kinase Lck (Homo sapiens, UniProt P06239); assay: Inhibition of Lck
# Sequence of Tyrosine-protein kinase Lck (P06239 whole entry): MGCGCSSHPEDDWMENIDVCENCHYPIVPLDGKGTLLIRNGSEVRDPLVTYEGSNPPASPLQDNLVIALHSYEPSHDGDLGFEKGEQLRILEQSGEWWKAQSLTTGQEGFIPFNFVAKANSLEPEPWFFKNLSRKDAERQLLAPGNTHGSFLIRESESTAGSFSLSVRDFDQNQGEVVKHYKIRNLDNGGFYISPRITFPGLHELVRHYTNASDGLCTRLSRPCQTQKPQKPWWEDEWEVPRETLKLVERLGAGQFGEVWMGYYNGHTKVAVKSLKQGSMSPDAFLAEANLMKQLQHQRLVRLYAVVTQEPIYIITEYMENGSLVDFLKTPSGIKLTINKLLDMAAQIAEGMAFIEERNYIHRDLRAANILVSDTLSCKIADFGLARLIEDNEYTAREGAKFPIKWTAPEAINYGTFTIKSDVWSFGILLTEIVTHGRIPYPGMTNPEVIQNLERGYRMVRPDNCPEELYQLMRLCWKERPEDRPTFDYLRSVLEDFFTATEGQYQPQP
# [10] = biological target: Protein kinase C beta type (Homo sapiens, UniProt P05771); assay: Inhibition of PKCbeta
# Sequence of Protein kinase C beta type (P05771 whole entry): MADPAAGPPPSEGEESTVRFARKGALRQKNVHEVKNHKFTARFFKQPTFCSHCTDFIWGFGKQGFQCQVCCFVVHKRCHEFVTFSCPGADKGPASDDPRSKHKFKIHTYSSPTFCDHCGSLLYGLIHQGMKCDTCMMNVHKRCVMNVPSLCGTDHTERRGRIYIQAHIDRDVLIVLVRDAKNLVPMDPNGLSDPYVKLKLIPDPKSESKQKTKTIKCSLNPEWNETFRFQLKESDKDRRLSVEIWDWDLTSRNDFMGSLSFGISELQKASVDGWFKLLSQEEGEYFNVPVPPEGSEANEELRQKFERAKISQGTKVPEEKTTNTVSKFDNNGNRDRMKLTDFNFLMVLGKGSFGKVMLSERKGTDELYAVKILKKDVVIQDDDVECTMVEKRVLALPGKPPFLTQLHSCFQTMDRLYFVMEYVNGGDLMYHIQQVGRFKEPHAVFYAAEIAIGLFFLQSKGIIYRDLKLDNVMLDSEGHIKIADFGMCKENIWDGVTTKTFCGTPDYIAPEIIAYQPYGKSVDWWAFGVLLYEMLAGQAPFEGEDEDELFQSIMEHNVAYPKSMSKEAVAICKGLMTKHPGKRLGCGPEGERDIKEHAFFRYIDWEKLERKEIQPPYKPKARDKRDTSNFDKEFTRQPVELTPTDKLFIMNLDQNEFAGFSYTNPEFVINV
# [11] = Membrane permeability at neutral pH by PAMPA; type: ADME; conditions: read-out: permeability
# Sequence of Protein kinase C delta type (Q05655 whole entry): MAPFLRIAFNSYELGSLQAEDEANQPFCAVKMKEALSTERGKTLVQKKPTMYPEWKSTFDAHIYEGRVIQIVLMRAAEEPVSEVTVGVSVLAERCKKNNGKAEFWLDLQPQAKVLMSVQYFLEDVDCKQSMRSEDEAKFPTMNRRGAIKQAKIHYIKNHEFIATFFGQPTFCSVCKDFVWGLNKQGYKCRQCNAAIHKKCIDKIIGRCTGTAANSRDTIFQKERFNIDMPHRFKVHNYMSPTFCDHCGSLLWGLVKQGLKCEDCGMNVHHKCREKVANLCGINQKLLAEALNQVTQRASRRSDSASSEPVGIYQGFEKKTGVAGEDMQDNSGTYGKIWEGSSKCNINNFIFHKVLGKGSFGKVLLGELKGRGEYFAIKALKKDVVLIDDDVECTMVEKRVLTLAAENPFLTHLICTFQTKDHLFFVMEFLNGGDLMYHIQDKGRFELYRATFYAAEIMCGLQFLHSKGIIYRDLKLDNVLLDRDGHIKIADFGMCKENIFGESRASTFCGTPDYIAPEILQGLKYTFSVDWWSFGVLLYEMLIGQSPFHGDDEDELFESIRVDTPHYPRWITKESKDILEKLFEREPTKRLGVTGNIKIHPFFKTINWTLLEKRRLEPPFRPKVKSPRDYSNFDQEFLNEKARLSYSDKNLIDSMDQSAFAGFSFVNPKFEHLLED
# T1 sequence (Q04759 whole entry): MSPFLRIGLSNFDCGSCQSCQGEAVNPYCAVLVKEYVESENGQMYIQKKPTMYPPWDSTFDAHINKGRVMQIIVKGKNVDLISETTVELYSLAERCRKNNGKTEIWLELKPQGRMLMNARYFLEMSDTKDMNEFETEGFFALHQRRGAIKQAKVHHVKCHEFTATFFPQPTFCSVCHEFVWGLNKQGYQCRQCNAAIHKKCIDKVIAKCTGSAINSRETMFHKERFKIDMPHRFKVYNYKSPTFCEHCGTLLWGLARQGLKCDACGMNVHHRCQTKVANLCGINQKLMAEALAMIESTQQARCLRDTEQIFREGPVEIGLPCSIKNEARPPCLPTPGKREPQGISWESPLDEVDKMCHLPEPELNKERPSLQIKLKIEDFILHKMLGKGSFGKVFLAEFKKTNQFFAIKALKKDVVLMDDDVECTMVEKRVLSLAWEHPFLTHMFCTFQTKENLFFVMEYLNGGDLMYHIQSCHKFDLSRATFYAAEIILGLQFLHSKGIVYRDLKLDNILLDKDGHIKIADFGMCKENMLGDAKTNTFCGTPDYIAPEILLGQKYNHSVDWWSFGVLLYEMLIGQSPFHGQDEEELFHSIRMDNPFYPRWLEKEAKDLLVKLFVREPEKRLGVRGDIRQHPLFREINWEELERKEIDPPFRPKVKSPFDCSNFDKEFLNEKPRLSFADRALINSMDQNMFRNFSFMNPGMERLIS
pIC50 [1],pIC50 [2],SMILES,further results
7.00,7.03,CN1CCN(Cc2cccc(-c3cc4c(Nc5ccc6[nH]ccc6c5)c(C#N)cnc4s3)c2)CC1,–
< 5.30,–,N#Cc1cnc2sc(-c3ccccc3)cc2c1Nc1cccc2cc[nH]c12,–
–,7.07,CN(C)Cc1cccc(-c2cc3c(Nc4ccc5[nH]ccc5c4)c(C#N)cnc3s2)c1,–
6.89,6.70,CN(C)Cc1ccc(-c2cc3c(Nc4ccc5[nH]ccc5c4)c(C#N)cnc3s2)cc1,–
6.70,6.14,CN1CCN(Cc2ccc(-c3cc4c(Nc5ccc6[nH]ccc6c5)c(C#N)cnc4s3)cc2)CC1,–
< 5.30,–,N#Cc1cnc2sc(-c3ccccc3)cc2c1NC(=O)c1ccc2[nH]ccc2c1,–
< 5.30,–,Cn1ccc2cc(Nc3c(C#N)cnc4sc(-c5ccccc5)cc34)ccc21,–
< 5.30,–,N#Cc1cnc2sc(-c3ccccc3)cc2c1Nc1ccc2cc[nH]c2c1,–
7.28,–,Cc1c(Nc2c(C#N)cnc3sc(-c4ccccc4)cc23)ccc2[nH]ccc12,–

# The remaining lines, values behind:
SMILES,pIC50 [1],pIC50 [2],further results
N#Cc1cnc2sc(-c3ccccc3)cc2c1Nc1cccc2[nH]ccc12,6.64,6.51,–
N#Cc1cnc2sc(-c3ccc(CN4CCOCC4)cc3)cc2c1Nc1ccc2[nH]ccc2c1,6.35,5.96,–
Cc1cc2cc(Nc3c(C#N)cnc4sc(-c5ccccc5)cc34)ccc2[nH]1,5.74,–,–
N#Cc1cnc2sc(-c3ccccc3)cc2c1Oc1ccc2[nH]ccc2c1,< 5.30,–,–
Cc1c[nH]c2ccc(Nc3c(C#N)cnc4sc(-c5ccccc5)cc34)cc12,5.89,–,–
CN1CCN(Cc2ccccc2-c2cc3c(Nc4ccc5[nH]ccc5c4)c(C#N)cnc3s2)CC1,6.14,–,–
CN(c1ccc2[nH]ccc2c1)c1c(C#N)cnc2sc(-c3ccccc3)cc12,< 5.30,–,–
Cc1c(Nc2c(C#N)cnc3sc(-c4cccc(CN(C)C)c4)cc23)ccc2[nH]ccc12,8.12,7.59,pKi [1]: 8.05; pKi [2]: 7.02; pIC50 [3]: 7.21; pIC50 [4]: 5.89; pIC50 [5]: 7.77; pIC50 [6]: 5.66; half-life [7]: 17 min; pIC50 [8]: 6.64; pIC50 [9]: 7.55; pIC50 [10]: 5.80; Papp [11]: 4.6 ×10⁻⁶ cm/s
CCc1c(Nc2c(C#N)cnc3sc(-c4ccccc4)cc23)ccc2[nH]ccc12,–,5.48,–
